Assay [1] has as its system human umbilical vein endothelial cells (HUVEC). The experiment in a line: HUVEC Proliferation Assay (VEGF-stimulated). In kind it is cell-based. The protocol: This assay determines the ability of a test compound to inhibit the growth factor-stimulated proliferation of human umbilical vein endothelial cells (“HUVEC”). HUVEC cells (passage 3–4, Clonetics, Corp.) were thawed into EGM2 culture medium (Clonetics Corp) in T75 flasks. Fresh EGM2 medium was added to the flasks 24 hours later. Four or five days later, cells were exposed to another culture medium (F12K medium supplemented with 10% fetal bovine serum (FBS), 60 μg/mL endothelial cell growth supplement (ECGS), and 0.1 mg/mL heparin). Exponentially-growing HUVEC cells were used in experiments thereafter. Ten to twelve thousand HUVEC cells were plated in 96-well dishes in 100 μl of rich, culture medium (described above). The cells were allowed to attach for 24 hours in this medium. The medium was then removed by aspiration and 105 μl of starvation media (F12K+1% FBS) was added to each well. After 24 hours, 15 μl of test agent dissolved in 1% DMSO in starvation medium or this vehicle alone was added into each treatment well; the final DMSO concentration was 0.1%. One hour later, 30 μl of VEGF (30 ng/mL) in starvation media was added to all wells except those containing untreated controls; the final VEGF concentration was 6 ng/mL. Cellular proliferation was quantified 72 hours later by MTT dye reduction, at which time cells were exposed for 4 hours MTT (Promega Corp.). Dye reduction was stopped by addition of a stop solution (Promega Corp.) and absorbance at 595λ was determined on a 96-well spectrophotometer plate reader.
IC50 values were calculated by curve-fitting the response of A^595 to various concentrations of the test agent; typically, seven concentrations separated by 0.5 log were employed, with triplicate wells at each concentration. For screening compound library plates, one or two concentrations (one well per concentration) were employed, and the % inhibition was calculated by the following formula: % inhibition=(control−test)[…](control−starvation) where
control=A^595 when VEGF is present without test agent
test=A^595 when VEGF is present with test agent
starvation=A^595 when VEGF and test agent are both absent.

Assay [2] addresses T1, unphosphorylated VEGF-R2Δ50 (Homo sapiens, UniProt P35968, DEL940-989/E990V).
T1 construct: VEGF-R2Δ50 contains residues 806–939 and 990–1171; made in house; host or cells: baculovirus/insect cell system
The experiment in a line: VEGF-R2 coupled spectrophotometric assay, unphosphorylated construct (FLVK). Conditions: % inhibition at 50 nM compound; read-out: FLVK Ki % inh @ 50 nM. In kind it is biochemical. An excerpt: This construct determines the ability of a test compound to inhibit tyrosine kinase activity. A construct (VEGF-R2Δ50) of the cytosolic domain of human vascular endothelial growth factor receptor 2 (VEGF-R2) lacking the 50 central residues of the 68 residues of the kinase insert domain was expressed in a baculovirus/insect cell system. Of the 1356 residues of full-length VEGF-R2, VEGF-R2Δ50 contains residues 806–939 and 990–1171, and also one point mutation (E99OV) within the kinase insert domain relative to wild-type VEGF-R2. Autophosphorylation of the purified construct was performed by incubation of the enzyme at a concentration of 4 μM in the presence of 3 mM ATP and 40 mM MgCl2 in 100 mM HEPES, pH 7.5, containing 5% glycerol and 5 mM DTT, at 4° C. for 2 h. […] See Parast et al., Biochemistry, 37,16788–16801 (1998).
(§1) The production of ADP from ATP that accompanies phosphoryl transfer was coupled to oxidation of NADH using phosphoenolpyruvate (PEP) and a system having pyruvate kinase (PK) and lactic dehydrogenase (LDH). The oxidation of NADH was monitored by following the decrease of absorbance at 340 nm (e340=6.22 cm^−1 mM^−1) using a Beckman DU 650 spectrophotometer. Assay conditions for phosphorylated VEGF-R2A50 (indicated as FLVK-P in the tables below) were the following: 1 mM PEP; 250 μM NADH; 50 units of LDH/mL; 20 units of PK/mL; 5 mM DTT; 5.1 mM poly(E4Y1); 1 mM ATP; and 25 mM MgCl2 in 200 mM HEPES, pH 7.5. Assay conditions for unphosphorylated VEGF-R2Δ50 (indicated as FLVK in the tables) were the following: 1 mM PEP; 250 μM NADH; 50 units of LDH/mL; 20 units of PK/mL; 5 mM DTT; […]; 3 mM ATP; and 60 mM MgCl2 and 2 mM MnCl2 in 200 mM HEPES, pH 7.5. Assays were initiated with 5 to 40 nM of enzyme. Ki values were determined by measuring enzyme activity in the presence of varying concentrations of test compounds. The data were analyzed using Enzyme Kinetic and Kaleidagraph software.

Another assay addresses T2, PDGFRβ (Homo sapiens, UniProt P09619).
T2 construct: expressed in transfected cells; host or cells: porcine aorta endothelial (PAE) cells
Put plainly: PAE-PDGFRβ Phosphorylation in PAE-PDGFRB Cells Assay. Conditions: PAE cells overexpressing human PDGFRβ; read-out: PAE PDGFR autophos IC50. In kind it is cell-based. The procedure: This assay determines the ability of a test compound to inhibit the autophosphorylation of PDGFRβ in porcine aorta endothelial (PAE)-PDGFRβ cells. PAE cells that overexpress human PDGFRβ were used in this assay. The cells were cultured in Ham's F12 media supplemented with 10% fetal bovine serum (FBS) and 400 ug/ml G418. Twenty thousands cells were seeded in each well of a 96-well plate in 50 μL of growth media and allowed to attach for 6 hours at 37° C. Cells were then exposed to the starvation media (Ham's F12 media supplemented with 0.1% FBS) for 16 hours. After the starvation period was over, 10 μL of test agent in 5% DMSO in starvation media were added to the test wells and 10 μL of the vehicle (5% DMSO in starvation media) were added into the control wells. The final DMSO concentration in each well was 0.5%. Plates were incubated at 37° C. for 1 hour and the cells were then stimulated with 1 μg/mL PDGF-BB (R & D System) in the presence of 2 mM Na3VO4 for 8 minutes. The cells were washed once with 1 mm Na3VO4 in HBSS and lysed by adding 50 μL per well of lysis buffer. One hundred μL of dilution buffer were then added to each well and the diluted cell lysate was transferred to a 96-well goat ant-rabbit coated plate (Pierce), which was pre-coated with Rabbit anti Human PDGFRβ antibody (Santa Cruz). The plates were incubated at room temperature for 2 hours and washed seven times with 1% Tween 20 in PBS. HRP-PY20 (Santa Cruz) was diluted and added to the plate for a 30-minute incubation. Plates were then washed again and TMB peroxidase substrate (Kirkegaard & Perry) was added for a 10-minute incubation. One hundred μL of 0.09 N H2SO4 was added into each well of the 96-well plate to stop the reaction. Phosphorylation status was assessed by spectrophotometer reading at 450 nm. IC50 values were calculated by curve fitting using a four-parameter analysis.

A further assay deals with T3, FGF-R1 (Homo sapiens, UniProt P11362, C488A/C584S/L457V).
T3 construct: starting from the endogenous methionine residue 456 to glutamate 766; made in house; host or cells: baculovirus vector expression system
T3 sequence (P11362 456-766 L457V/C488A/C584S): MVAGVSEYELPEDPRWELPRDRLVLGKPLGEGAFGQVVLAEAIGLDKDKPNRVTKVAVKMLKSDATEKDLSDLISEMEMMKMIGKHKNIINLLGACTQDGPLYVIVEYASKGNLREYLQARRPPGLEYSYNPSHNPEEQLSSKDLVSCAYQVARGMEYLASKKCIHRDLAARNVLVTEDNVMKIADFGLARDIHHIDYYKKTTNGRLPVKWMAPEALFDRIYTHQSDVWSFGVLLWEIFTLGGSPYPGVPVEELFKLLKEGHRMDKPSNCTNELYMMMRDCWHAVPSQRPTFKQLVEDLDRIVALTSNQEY
The experiment in a line: Fibroblast Growth Factor (FGF-R) spectrophotometric assay. The settings on record: 1 μM compound; read-out: FGF-P % inhibit @1 μM. In kind it is biochemical.
Description: The intracellular kinase domain of human FGF-R1 was expressed using the baculovirus vector expression system starting from the endogenous methionine residue 456 to glutamate 766, according to the residue numbering system of Mohammadi et al., Mol. Cell. Biol., 16, 977–989 (1996). In addition, the construct also has the following 3 amino acid substitutions: L457V, C488A, and C584S.
as §1
The spectrophotometric assay was carried out as described above for VEGF-R2, except for the following changes in concentration: FGF-R=50 nM, ATP=2 mM, and poly(E4Y1)=15 mM.

T2 sequence (P09619 33-1106): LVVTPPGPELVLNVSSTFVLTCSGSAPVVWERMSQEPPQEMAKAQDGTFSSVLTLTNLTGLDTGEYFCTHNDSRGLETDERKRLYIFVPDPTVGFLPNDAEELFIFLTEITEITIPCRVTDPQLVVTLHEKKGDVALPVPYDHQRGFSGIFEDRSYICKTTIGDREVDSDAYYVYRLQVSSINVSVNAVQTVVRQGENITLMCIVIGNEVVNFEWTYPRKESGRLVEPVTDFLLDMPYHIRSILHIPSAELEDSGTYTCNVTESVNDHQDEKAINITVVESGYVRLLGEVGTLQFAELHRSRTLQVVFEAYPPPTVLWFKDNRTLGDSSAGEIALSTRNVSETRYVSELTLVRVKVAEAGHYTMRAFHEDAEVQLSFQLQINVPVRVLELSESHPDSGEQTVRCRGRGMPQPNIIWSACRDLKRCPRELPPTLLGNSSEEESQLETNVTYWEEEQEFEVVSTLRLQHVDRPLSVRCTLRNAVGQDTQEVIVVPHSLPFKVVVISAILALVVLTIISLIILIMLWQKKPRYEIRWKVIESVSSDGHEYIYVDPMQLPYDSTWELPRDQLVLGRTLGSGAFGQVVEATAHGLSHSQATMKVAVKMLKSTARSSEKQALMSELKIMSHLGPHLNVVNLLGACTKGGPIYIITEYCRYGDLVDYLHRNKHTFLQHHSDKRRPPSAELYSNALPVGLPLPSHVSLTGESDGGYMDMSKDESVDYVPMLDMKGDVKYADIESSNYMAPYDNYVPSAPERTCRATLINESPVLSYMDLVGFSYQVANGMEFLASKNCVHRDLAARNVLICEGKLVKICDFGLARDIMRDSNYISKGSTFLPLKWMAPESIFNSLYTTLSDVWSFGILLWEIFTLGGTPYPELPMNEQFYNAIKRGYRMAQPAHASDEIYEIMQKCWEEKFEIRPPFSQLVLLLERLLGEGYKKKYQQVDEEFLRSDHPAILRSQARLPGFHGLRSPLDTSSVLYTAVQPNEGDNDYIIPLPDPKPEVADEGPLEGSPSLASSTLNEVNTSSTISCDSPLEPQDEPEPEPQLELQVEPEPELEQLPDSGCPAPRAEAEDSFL
T1 sequence (P35968 with tags, fused parts or gaps DEL940-989/E990V limits assumed): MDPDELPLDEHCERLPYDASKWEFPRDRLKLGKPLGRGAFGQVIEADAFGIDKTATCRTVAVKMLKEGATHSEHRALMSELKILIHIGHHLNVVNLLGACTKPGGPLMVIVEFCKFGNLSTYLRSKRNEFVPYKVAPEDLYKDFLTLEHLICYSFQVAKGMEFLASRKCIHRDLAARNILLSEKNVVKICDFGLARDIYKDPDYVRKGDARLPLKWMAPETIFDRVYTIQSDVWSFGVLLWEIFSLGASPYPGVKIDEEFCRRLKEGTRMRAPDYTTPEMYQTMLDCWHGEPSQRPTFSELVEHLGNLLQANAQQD

Regarding `O=C(NCC#CC1CC1)c1ccccc1Nc1ccc2c(/C=N/n3cccc3)n[nH]c2c1` [Example 55, N-(3-Cyclopropyl-prop-2-ynyl)-2-[3-(pyrrol-1-yliminomethyl)-1H-indazol-6-ylamino]-benzamide], the IC50 came out at 0.2 nM in assay [1] and 3.7 nM at PDGFRβ. Besides, in assay [2], the inhibition at 0.05 µM worked out at 97%. Also, the inhibition at 1 µM on FGF-R1 turned out to be 67%.

In the case of `C#CCNC(=O)c1ccccc1Nc1ccc2c(/C=C/c3cc(C)cc(C)n3)n[nH]c2c1` [Example 13, N-(prop-2-ynyl)-2-{3-[(E)-2-(2,4-dimethyl-pyridin-2-yl)-vinyl]-1H-indazol-6-ylamino}-benzamide], in assay [2], the inhibition at 0.05 µM amounted to 80%. For the same compound, on PDGFRβ, the IC50 is 6 nM. For the same compound, the inhibition at 1 µM at FGF-R1 came to 63%.

In assay [1], `Cc1cc(C)nc(/C=C/c2n[nH]c3cc(Nc4ncccc4C(=O)NCC#CC4CC4)ccc23)c1` [Example 25, N-(3-Cyclopropyl-prop-2-ynyl)-2-{3-[(E)-2-(4,6-dimethyl-pyridin-2-yl)-vinyl]-1H-indazol-6-ylamino}-nicotinamide] registered an IC50 of 3 nM. Moreover, in assay [2], the inhibition at 0.05 µM turned out to be 64%. Besides, at FGF-R1, the inhibition at 1 µM worked out at 13%.

The compound `CC(=O)OCC#CCNC(=O)c1ccccc1Nc1ccc2c(/C=C/c3cc(C)cc(C)n3)n[nH]c2c1` [Example 20, Acetic acid 4-(2-{3-[(E)-2-(4,6-dimethyl-pyridin-2-yl)-vinyl]-1H-indazol-6-ylamino}-benzoylamino)-but-2-ynyl ester] came in with an IC50 in assay [1] of 0.084 nM. In addition, the inhibition at 0.05 µM in assay [2] was determined as 91%. Also, on FGF-R1, the inhibition at 1 µM amounted to 35%.

On to `C=C(C)CNC(=O)c1ccccc1Nc1ccc2c(/C=C/c3cc(C)ccn3)n[nH]c2c1` [Example 34, N-(2-Methyl-allyl)-2-{[(E)-2-(4-methyl-pyridin-2-yl)-vinyl]-1H-indazol-6-ylamino}-benzamide], for which the inhibition at 0.05 µM in assay [2] came out at 72%. The IC50 on PDGFRβ stood at 4.5 nM.

`O=C(NCC#CCO)c1ccccc1Nc1ccc2c(/C=N/n3cccc3)n[nH]c2c1` [Example 57, N-(4-Hydroxy-but-2-ynyl)-2-[3-(pyrrol-1-yliminomethyl)-1H-indazol-6-ylamino]-benzamide]: the 50% inhibitory concentration (IC50) was less than 1.8 nM in assay [1] and 1.3 nM at PDGFRβ. For the same compound, in assay [2], the inhibition at 0.05 µM was 91%. Also, at FGF-R1, the inhibition at 1 µM amounted to 52%.

In the case of `C#CCNC(=O)c1ccccc1Nc1ccc2c(/C=N/n3cccc3)n[nH]c2c1` [Example 63, N-Prop-2-ynyl-2-[3-(pyrrol-1-yliminomethyl)-1H-indazol-6-ylamino]-benzamide], the values for the IC50 (in assay [1]; at PDGFRβ) were 0.1 nM and 2.4 nM, respectively. Further, the inhibition at 0.05 µM in assay [2] turned out to be 85%. For the same compound, on FGF-R1, the inhibition at 1 µM was determined as 63%.

With `C#CCNC(=O)c1ccccc1Nc1ccc2c(C(=O)NC)n[nH]c2c1` [Example 1(k), 6-(2-Prop-2-ynylcarbamoyl-phenylamino)-1H-indazole-3-carboxylic acid methylamide], the IC50 in assay [1] is more than 10 nM. In addition, the inhibition at 0.05 µM in assay [2] stood at 27%. Besides, the inhibition at 1 µM on FGF-R1 was determined as 12%.

`Cc1ccnc(/C=C/c2n[nH]c3cc(Nc4ccccc4C(=O)NCC#CCO)ccc23)c1` [Example 51, 2-{3-[(E)-2-(4-Methyl-pyridin-2-yl)-vinyl]-1H-indazol6-ylamino}-N-(4-hydroxy-but-2-ynyl)-benzamide]: in assay [2], the inhibition at 0.05 µM turned out to be 82%. Besides, the inhibition at 1 µM on FGF-R1 worked out at 52%.

`Cc1ccnc(/C=C/c2n[nH]c3cc(Nc4ccccc4C(=O)NCc4nccn4C)ccc23)c1` [Example 49, N-(1-Methyl-1H-imidazol-2-ylmethyl)-2-{3-[2-(4-methyl-pyridin-2-yl)-vinyl]-1H-indazol-6-ylamino}-benzamide]: in assay [2], the inhibition at 0.05 µM worked out at 11%. For the same compound, the inhibition at 1 µM at FGF-R1 stood at 36%.

As to `Cc1ccnc(/C=C/c2n[nH]c3cc(Nc4ccccc4C(=O)NCc4cccc(C)n4)ccc23)c1` [Example 39, N-(6-Methyl-pyridin-2-ylmethyl)-2-{3-[2-(4-methyl-pyridin-2-yl)-vinyl]-1H-indazol-6-ylamino}-benzamide], the inhibition at 0.05 µM in assay [2] was 96%. For the same compound, the IC50 at PDGFRβ is 4.7 nM. The inhibition at 1 µM at FGF-R1 was 76%.

On to `Cc1ccnc(/C=C/c2n[nH]c3cc(Nc4ccccc4C(=O)NCc4nc5ccccc5n4C)ccc23)c1` [Example 45, N-(1-Methyl-1H-benzoimidazol-2-ylmethyl)-2-{3-[(E)2-(4-methyl-pyridin-2-yl)-vinyl]-1H-indazol-6-ylamino}-benzamide], for which, in assay [2], the inhibition at 0.05 µM turned out to be 28%. For the same compound, the inhibition at 1 µM at FGF-R1 is 24%.

Values taken from US7053107B2, “Indazole compounds and pharmaceutical compositions for inhibiting protein kinases, and methods for their use” (Agouron Pharmaceuticals, Inc., priority 2002, dated 2006).
